Among the data in patent publication US12209102B2, “Heterocyclic compounds and uses thereof” (Kumquat Biosciences Inc., priority 2022, dated 2025) are IC50 values, retold here.

The term IC50 denotes the concentration at which inhibition is half-maximal.

The test system of one test is SW620 cells. In words: Ras cellular assay, growth of cells with K-Ras G12V mutation (CellTiter-Glo). The settings on record: Homo sapiens, SW-620; cell growth, Example 9, G12V mutation; read-out: IC50 against SW620 cells. It is filed as cell-based. As to the method: For example, this assay can be also used to assess a selective growth inhibition of a mutant Ras protein relative to a wildtype, or relative to a different mutant Ras protein.
SW620 (ATCC CCL-227) and Capan-1 (ATCC HTB-79) cell lines comprise a G12V mutation and can be used to assess Ras cellular signaling in vitro, e.g., in response to the compounds herein. SW620 culture medium is prepared with RPMI-1640 and 10% heat-inactivated FBS. Capan-1 culture medium is prepared with RPMI-1640 and 10% heat-inactivated FBS. A CellTiter-Glo (CTG) luminescent based assay (Promega) is used to assess growth of the cells, as a measurement of the ability of the compounds herein to inhibit Ras signaling in the cells. The cells (e.g., 800 per well) are seeded in their respective culture medium in standard tissue culture-treated 384-well format plates (Falcon #08-772-116) or ultra-low attachment surface 384-well format plates (S-Bio #MS-9384WZ). The day after plating, cells are treated with a dilution series (e.g., a 10 point 3-fold dilution series) of the compounds herein (e.g., approximately 40 μL final volume per well). Cell viability can be monitored (e.g., approximately 6 days later) according to the manufacturer's recommended instructions, where the CellTiter-Glo reagent is added (e.g., approximately 10 μL), vigorously mixed, covered, and placed on a plate shaker (e.g., approximately for 20 min) to ensure sufficient cell lysis prior to assessment of luminescent signal. The IC50 values are determined using the four parameter fit. The resulting IC50 value is a measurement of the ability of the compounds herein to reduce cell growth of Ras-driven cells (e.g., tumor cell lines) in vitro and/or in vivo.
(In ATP-based viability assays light output follows the ATP content of the culture.)

The target in another test is T1, K-Ras G12S (Homo sapiens, UniProt P01116, G12S).
T1 construct: made in house; host or cells: E. coli BL21 (DE3)
Kind of test: HTRF resonance energy transfer assay, K-Ras G12S / SOS1 interaction. The format is biochemical. As to conditions: HTRF assay of Example 5; read-out: IC50 against K-Ras G12S. The gist of the method: (§1)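 Compounds, tested in duplicate at 10 μM down to 0.01 μM, were read after about 10 min or more by HTRF as the 665/620 nm emission ratio (337 nm excitation) to derive IC50. This ratio reports FRET between an anti-GST-Eu donor on GST-K-Ras (wild-type or mutant) and an anti-6His-XL665 acceptor on His-hSOS1. Buffer: ~5 mM HEPES pH 7.4, 150 mM NaCl, 1 mM DTT, 0.05% BSA, 0.0025% Igepal.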
(In general: In TR-FRET formats the signal depends on donor and acceptor labels being close together.)

The next test has as its target T2, K-Ras WT (Homo sapiens, UniProt P01116).
T2 construct: made in house; host or cells: E. coli BL21 (DE3)
In words: HTRF resonance energy transfer assay, K-Ras WT / SOS1 interaction. As to conditions: HTRF assay of Example 5; read-out: IC50 against K-Ras WT. It is filed as biochemical. A digest of the protocol:
as §1

For the next test, the target named is T3, K-Ras G12V (Homo sapiens, UniProt P01116, G12V).
T3 construct: made in house; host or cells: E. coli BL21 (DE3)
Kind of test: HTRF resonance energy transfer assay, K-Ras G12V / SOS1 interaction. The format is biochemical. The settings on record: HTRF assay of Example 5; read-out: IC50 against K-Ras G12V. The gist of the method: as §1

A further test concerns the target T4, K-Ras G12D (Homo sapiens, UniProt P01116, G12D).
T4 construct: made in house; host or cells: E. coli BL21 (DE3)
In words: HTRF resonance energy transfer assay, K-Ras G12D / SOS1 interaction. It is filed as biochemical. As to conditions: HTRF assay of Example 5; read-out: IC50 against K-Ras G12D. The gist of the method:
as §1

T4 sequence (P01116 1-188 isoform P01116-2 G12D): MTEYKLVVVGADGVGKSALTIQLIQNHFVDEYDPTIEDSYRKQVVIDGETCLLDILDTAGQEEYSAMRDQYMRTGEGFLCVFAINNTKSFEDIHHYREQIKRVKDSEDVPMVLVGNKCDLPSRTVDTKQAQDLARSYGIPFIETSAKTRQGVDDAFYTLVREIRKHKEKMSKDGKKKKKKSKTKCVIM
T1 sequence (P01116 1-188 isoform P01116-2 G12S): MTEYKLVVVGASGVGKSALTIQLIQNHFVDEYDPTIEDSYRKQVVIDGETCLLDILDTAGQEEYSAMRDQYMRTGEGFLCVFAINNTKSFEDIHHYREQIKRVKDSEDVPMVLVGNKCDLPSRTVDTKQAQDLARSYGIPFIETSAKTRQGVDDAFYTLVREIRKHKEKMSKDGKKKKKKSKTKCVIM
T3 sequence (P01116 1-188 isoform P01116-2 G12V): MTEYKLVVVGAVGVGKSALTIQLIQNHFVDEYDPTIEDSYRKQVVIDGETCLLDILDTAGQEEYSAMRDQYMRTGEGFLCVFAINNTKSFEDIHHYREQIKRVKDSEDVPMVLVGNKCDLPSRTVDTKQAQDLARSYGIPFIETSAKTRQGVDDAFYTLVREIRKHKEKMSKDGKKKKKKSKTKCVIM
T2 sequence (P01116 1-188 isoform P01116-2): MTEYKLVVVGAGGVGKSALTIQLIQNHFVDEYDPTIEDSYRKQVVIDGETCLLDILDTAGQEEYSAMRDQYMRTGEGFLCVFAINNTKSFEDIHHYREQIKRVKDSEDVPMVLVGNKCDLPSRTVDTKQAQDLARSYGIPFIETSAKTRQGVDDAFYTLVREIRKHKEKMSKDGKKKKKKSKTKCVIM

Turning to `CC(O)C1COc2c(Cl)c(-c3ccc(F)c4sc(N)c(C#N)c34)c(F)c3nc(OC[C@@]45CCCN4C[C@H](F)C5)nc(c23)N1CC1CCCNC1` (stereo partly drawn) [Compound 764, 2-amino-4-(8-chloro-10-fluoro-2-(((2R,7aS)-2-fluorotetrahydro-1H-pyrrolizin-7a(5H)-yl)methoxy)-5-(1-hydroxyethyl)-4-(piperidin-3-ylmethyl)-5,6-dihydro-4H-[1,4]oxazepino[5,6,7-de]quinazolin-9-yl)-7-fluorobenzo[b]thiophene-3-carbonitrile], the IC50 in the test with SW620 cells is less than 5000 nM; at K-Ras G12S, less than 100 nM; at K-Ras WT it was less than 100 nM; at K-Ras G12V it was less than 100 nM; at K-Ras G12D, less than 100 nM.

Regarding `Cn1nc(N)cc1CN1CCOc2c(Cl)c(-c3ccc(F)c4sc(N)c(C#N)c34)c(F)c3nc(OC[C@@]45CCCN4C[C@H](F)C5)nc1c23` [Compound 770, 2-amino-4-(4-((3-amino-1-methyl-1H-pyrazol-5-yl)methyl)-8-chloro-10-fluoro-2-(((2R,7aS)-2-fluorotetrahydro-1H-pyrrolizin-7a(5H)-yl)methoxy)-5,6-dihydro-4H-[1,4]oxazepino[5,6,7-de]quinazolin-9-yl)-7-fluorobenzo[b]thiophene-3-carbonitrile], the half-inhibitory concentration (IC50) in the test on SW620 cells was less than 5000 nM; at K-Ras G12S it was less than 100 nM; on K-Ras WT, less than 100 nM; on K-Ras G12V, less than 100 nM; on K-Ras G12D it was less than 100 nM.

On to `N#Cc1c(N)sc2c(F)ccc(-c3c(Cl)c4c5c(nc(OC[C@@]67CCCN6C[C@H](F)C7)nc5c3F)N(C3CCCC3O)CCO4)c12` (stereo partly drawn) [Compound 808, 2-amino-4-(8-chloro-10-fluoro-2-(((2R,7aS)-2-fluorotetrahydro-1H-pyrrolizin-7a(5H)-yl)methoxy)-4-(2-hydroxycyclopentyl)-5,6-dihydro-4H-[1,4]oxazepino[5,6,7-de]quinazolin-9-yl)-7-fluorobenzo[b]thiophene-3-carbonitrile], for which the 50% inhibitory concentration (IC50) in the test on SW620 cells was less than 5000 nM; at K-Ras G12S it was less than 100 nM; on K-Ras WT it was less than 100 nM; on K-Ras G12V, less than 100 nM; on K-Ras G12D, less than 100 nM.

For the compound `CC1Oc2c(Cl)c(-c3ccc(F)c4sc(N)c(C#N)c34)c(F)c3nc(OC[C@@]45CCCN4C[C@H](F)C5)nc(c23)N(CC(F)F)[C@H]1C(C)(C)O` (stereo partly drawn) [Compound 810, 2-amino-4-((5R)-8-chloro-4-(2,2-difluoroethyl)-10-fluoro-2-(((2R,7aS)-2-fluorotetrahydro-1H-pyrrolizin-7a(5H)-yl)methoxy)-5-(2-hydroxypropan-2-yl)-6-methyl-5,6-dihydro-4H-[1,4]oxazepino[5,6,7-de]quinazolin-9-yl)-7-fluorobenzo[b]thiophene-3-carbonitrile], the IC50 was less than 5000 nM in the test on SW620 cells; less than 100 nM on K-Ras G12S; less than 100 nM at K-Ras WT; less than 100 nM on K-Ras G12V; less than 100 nM at K-Ras G12D.

For the compound `N#Cc1c(N)sc2c(F)ccc(-c3c(Cl)c4c5c(nc(OC[C@@]67CCCN6C[C@H](F)C7)nc5c3F)N(CC3CCCN3C(=O)C3CN3)CCO4)c12` (stereo partly drawn) [Compound 811, 2-amino-4-(4-((1-(aziridine-2-carbonyl)pyrrolidin-2-yl)methyl)-8-chloro-10-fluoro-2-(((2R,7aS)-2-fluorotetrahydro-1H-pyrrolizin-7a(5H)-yl)methoxy)-5,6-dihydro-4H-[1,4]oxazepino[5,6,7-de]quinazolin-9-yl)-7-fluorobenzo[b]thiophene-3-carbonitrile], the IC50 with SW620 cells is less than 5000 nM; at K-Ras G12S, less than 100 nM; on K-Ras WT it was less than 100 nM; at K-Ras G12V, less than 100 nM; on K-Ras G12D it was less than 100 nM.

As to `C[C@H]1COc2c(Cl)c(-c3ccc(F)c4sc(N)c(C#N)c34)c(F)c3nc(OC[C@@]45CCCN4C[C@H](F)C5)nc(c23)N1CC1CC1C#N` (stereo partly drawn) [Compound 818, 2-amino-4-((5S)-8-chloro-4-((2-cyanocyclopropyl)methyl)-10-fluoro-2-(((2R,7aS)-2-fluorotetrahydro-1H-pyrrolizin-7a(5H)-yl)methoxy)-5-methyl-5,6-dihydro-4H-[1,4]oxazepino[5,6,7-de]quinazolin-9-yl)-7-fluorobenzo[b]thiophene-3-carbonitrile], the half-inhibitory concentration (IC50) in the test on SW620 cells is less than 5000 nM; on K-Ras G12S it was less than 100 nM; at K-Ras WT, less than 100 nM; at K-Ras G12V, less than 100 nM; on K-Ras G12D it was less than 100 nM.

`N#Cc1c(N)sc2c(F)ccc(-c3c(Cl)c4c5c(nc(OC[C@@]67CCCN6C[C@H](F)C7)nc5c3F)N(CC3CC3C#N)[C@@H](C(F)F)CO4)c12` (stereo partly drawn) [Compound 853, 2-amino-4-((5R)-8-chloro-4-((2-cyanocyclopropyl)methyl)-5-(difluoromethyl)-10-fluoro-2-(((2R,7aS)-2-fluorotetrahydro-1H-pyrrolizin-7a(5H)-yl)methoxy)-5,6-dihydro-4H-[1,4]oxazepino[5,6,7-de]quinazolin-9-yl)-7-fluorobenzo[b]thiophene-3-carbonitrile]: the IC50 with SW620 cells was less than 5000 nM; on K-Ras G12S, less than 100 nM; on K-Ras WT it was less than 100 nM; on K-Ras G12V it was less than 100 nM; on K-Ras G12D, less than 100 nM.

Take `N#Cc1c(N)sc2c(F)ccc(-c3c(Cl)c4c5c(nc(OC[C@@]67CCCN6C[C@H](F)C7)nc5c3F)N(C3CCC(N)C3)CCO4)c12` (stereo partly drawn) [Compound 907, 2-amino-4-(4-(3-aminocyclopentyl)-8-chloro-10-fluoro-2-(((2R,7aS)-2-fluorotetrahydro-1H-pyrrolizin-7a(5H)-yl)methoxy)-5,6-dihydro-4H-[1,4]oxazepino[5,6,7-de]quinazolin-9-yl)-7-fluorobenzo[b]thiophene-3-carbonitrile]: the IC50 with SW620 cells was less than 5000 nM; at K-Ras G12S it was less than 100 nM; at K-Ras WT, less than 100 nM; on K-Ras G12V, less than 100 nM; on K-Ras G12D, less than 100 nM.

For `N#Cc1c(N)sc2c(F)ccc(-c3c(Cl)c4c5c(nc(OC[C@@]67CCCN6C[C@H](F)C7)nc5c3F)N(CC(F)F)[C@@H](CNC(=O)[C@H]3CN3)CO4)c12` [Compound 1053, (2R)-N-(((5S)-9-(2-amino-3-cyano-7-fluorobenzo[b]thiophen-4-yl)-8-chloro-4-(2,2-difluoroethyl)-10-fluoro-2-(((2R,7aS)-2-fluorotetrahydro-1H-pyrrolizin-7a(5H)-yl)methoxy)-5,6-dihydro-4H-[1,4]oxazepino[5,6,7-de]quinazolin-5-yl)methyl)aziridine-2-carboxamide], the half-inhibitory concentration (IC50) in the test with SW620 cells was less than 5000 nM; on K-Ras G12S, less than 100 nM; at K-Ras WT it was less than 100 nM; on K-Ras G12V it was less than 100 nM; on K-Ras G12D, less than 100 nM.

Consider `N#Cc1c(N)sc2c(F)ccc(-c3c(Cl)c4c5c(nc(OC[C@@]67CCCN6C[C@H](F)C7)nc5c3F)N(C3CC3)[C@@H](CNC=O)CO4)c12` [Compound 1084, N-(((5S)-9-(2-amino-3-cyano-7-fluorobenzo[b]thiophen-4-yl)-8-chloro-4-cyclopropyl-10-fluoro-2-(((2R,7aS)-2-fluorotetrahydro-1H-pyrrolizin-7a(5H)-yl)methoxy)-5,6-dihydro-4H-[1,4]oxazepino[5,6,7-de]quinazolin-5-yl)methyl)formamide], for which the IC50 is less than 5000 nM in the test with SW620 cells; less than 100 nM on K-Ras G12S; less than 100 nM at K-Ras WT; less than 100 nM at K-Ras G12V; less than 100 nM at K-Ras G12D.

With `N#Cc1c(N)sc2c(F)ccc(-c3c(Cl)c4c5c(nc(OC[C@@]67CCCN6C[C@H](F)C7)nc5c3F)N([C@H]3CNC[C@@H]3F)CCO4)c12` [Compound 1085, 2-amino-4-(8-chloro-10-fluoro-4-((3S,4S)-4-fluoropyrrolidin-3-yl)-2-(((2R,7aS)-2-fluorotetrahydro-1H-pyrrolizin-7a(5H)-yl)methoxy)-5,6-dihydro-4H-[1,4]oxazepino[5,6,7-de]quinazolin-9-yl)-7-fluorobenzo[b]thiophene-3-carbonitrile], the half-inhibitory concentration (IC50) in the test with SW620 cells is less than 5000 nM; on K-Ras G12S, less than 100 nM; at K-Ras WT, less than 100 nM; at K-Ras G12V, less than 100 nM; on K-Ras G12D, less than 100 nM.
